According to PubChem BioAssay (NCI):
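Briefly, cells in 96-well plates were exposed to five compound concentrations for 48 h, and endpoints were estimated by linear interpolation. GI50 marks 50% less growth. The concentration for full growth arrest is given as TGI.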

Tests used:
Test in all cases: NCI-60 cell line screen, 48 h
[1] = test system: 786-0 renal
[2] = test system: A498 renal
[3] = test system: A549 NSCLC
[4] = test system: ACHN renal
[5] = test system: BT-549 breast
[6] = test system: CAKI-1 renal
[7] = test system: CCRF-CEM leukemia
[8] = test system: COLO 205 colon
[9] = test system: DU-145 prostate
[10] = test system: EKVX NSCLC
[11] = test system: HCC-2998 colon
[12] = test system: HCT-116 colon
[13] = test system: HCT-15 colon
[14] = test system: HL-60(TB) leukemia
[15] = test system: HOP-62 NSCLC
[16] = test system: HOP-92 NSCLC
[17] = test system: HS 578T breast
[18] = test system: HT29 colon
[19] = test system: IGROV1 ovarian
[20] = test system: K-562 leukemia
[21] = test system: KM12 colon
[22] = test system: LOX IMVI melanoma
[23] = test system: M14 melanoma
[24] = test system: MALME-3M melanoma
[25] = test system: MCF7 breast
[26] = test system: MDA-MB-231 breast
[27] = test system: MDA-MB-435
[28] = test system: MOLT-4 leukemia
[29] = test system: NCI-H226 lung
[30] = test system: NCI-H23 lung
[31] = test system: NCI-H460 lung
[32] = test system: NCI-H522 lung
[33] = test system: NCI/ADR-RES ovarian
[34] = test system: OVCAR-3 ovarian
[35] = test system: OVCAR-4 ovarian
[36] = test system: OVCAR-5 ovarian
[37] = test system: OVCAR-8 ovarian
[38] = test system: PC-3 prostate
[39] = test system: RPMI-8226 leukemia
[40] = test system: RXF 393 renal
[41] = test system: SF-268 CNS
[42] = test system: SF-295 CNS
[43] = test system: SF-539 CNS
[44] = test system: SK-MEL-2 melanoma
[45] = test system: SK-MEL-28 melanoma
[46] = test system: SK-MEL-5 melanoma
[47] = test system: SK-OV-3 ovarian
[48] = test system: SN12C renal
[49] = test system: SNB-19 CNS
[50] = test system: SNB-75 CNS
[51] = test system: SW-620 colon
[52] = test system: T-47D breast
[53] = test system: TK-10 renal
[54] = test system: U251 CNS
[55] = test system: UACC-257 melanoma
[56] = test system: UACC-62 melanoma
[57] = test system: UO-31 renal

CC1=C(C)C(=O)C(Nc2cccc(C(F)(F)F)c2)=C(Cl)C1=O
GI50 [1]: 10.6 µM | TGI [1]: 24.3 µM | GI50 [2]: 13.7 µM | TGI [2]: 45.2 µM | GI50 [3]: 13.3 µM | TGI [3]: > 100 µM | GI50 [4]: 1.73 µM | TGI [4]: 3.18 µM | GI50 [5]: 8.56 µM | TGI [5]: 22.2 µM | GI50 [6]: 1.94 µM | TGI [6]: 9.11 µM | GI50 [7]: 1.93 µM | TGI [7]: > 100 µM | GI50 [8]: 13 µM | TGI [8]: 29.3 µM | GI50 [9]: 15.6 µM | TGI [9]: 34.8 µM | GI50 [10]: 1.49 µM | TGI [10]: 3.73 µM | GI50 [11]: 5.88 µM | TGI [11]: 18.4 µM | GI50 [12]: 1.93 µM | TGI [12]: 3.99 µM | GI50 [13]: 2.2 µM | TGI [13]: 5.05 µM | GI50 [14]: 2.34 µM | TGI [14]: 6.54 µM | GI50 [15]: 11.5 µM | TGI [15]: 27.6 µM | GI50 [16]: 1.5 µM | TGI [16]: 3.04 µM | GI50 [17]: 6 µM | TGI [17]: 64.4 µM | GI50 [18]: 7.29 µM | TGI [18]: 51.8 µM | GI50 [19]: 1.42 µM | TGI [19]: 3.19 µM | GI50 [20]: 2.4 µM | TGI [20]: > 100 µM | GI50 [21]: 3.58 µM | TGI [21]: 25.7 µM | GI50 [22]: 1.69 µM | TGI [22]: 3.32 µM | GI50 [23]: 9.96 µM | TGI [23]: 32.7 µM | GI50 [24]: 1.98 µM | TGI [24]: 6.04 µM | GI50 [25]: 1.71 µM | TGI [25]: 3.79 µM | GI50 [26]: 1.59 µM | TGI [26]: 3.28 µM | GI50 [27]: 5.98 µM | TGI [27]: 19.5 µM | GI50 [28]: 2.22 µM | TGI [28]: > 100 µM | GI50 [29]: 10.8 µM | TGI [29]: 34.8 µM | GI50 [30]: 6.87 µM | TGI [30]: 24 µM | GI50 [31]: 11.6 µM | TGI [31]: 32.2 µM | GI50 [32]: 2.24 µM | TGI [32]: 5.66 µM | GI50 [33]: 3.16 µM | TGI [33]: 42.3 µM | GI50 [34]: 2.31 µM | TGI [34]: 5.58 µM | GI50 [35]: 1.58 µM | TGI [35]: 2.97 µM | GI50 [36]: 1.98 µM | TGI [36]: 4.13 µM | GI50 [37]: 2.68 µM | TGI [37]: 6.89 µM | GI50 [38]: 2.67 µM | TGI [38]: 12.8 µM | GI50 [39]: 1.32 µM | TGI [39]: 7.32 µM | GI50 [40]: 1.49 µM | TGI [40]: 2.85 µM | GI50 [41]: 4.99 µM | TGI [41]: 28.6 µM | GI50 [42]: 6.55 µM | TGI [42]: 24 µM | GI50 [43]: 2.4 µM | TGI [43]: 6.61 µM | GI50 [44]: 8.26 µM | TGI [44]: 21.7 µM | GI50 [45]: 3.36 µM | TGI [45]: 10.8 µM | GI50 [46]: 4.14 µM | TGI [46]: 15.7 µM | GI50 [47]: 13 µM | TGI [47]: 50.7 µM | GI50 [48]: 4.25 µM | TGI [48]: 23.4 µM | GI50 [49]: 5.83 µM | TGI [49]: 23.4 µM | GI50 [50]: 1.16 µM | TGI [50]: 13.6 µM | GI50 [51]: 2.09 µM | TGI [51]: 4.73 µM | GI50 [52]: 1.17 µM | TGI [52]: 3.6 µM | GI50 [53]: 19 µM | TGI [53]: 37 µM | GI50 [54]: 4.45 µM | TGI [54]: 17.9 µM | GI50 [55]: 2.61 µM | TGI [55]: 6.72 µM | GI50 [56]: 3.46 µM | TGI [56]: 16.1 µM | GI50 [57]: 1.46 µM | TGI [57]: 4.18 µM
